Laboratory results taken from BindingDB's records for doi:10.1016/j.bmc.2006.10.050 (Paradigm Pharmaceuticals, 2007).

How the values were obtained:
[1] = molecular target: T1, Cytoplasmic tyrosine-protein kinase BMX (Homo sapiens, UniProt P51813); assay: Kinase Selectivity Assay
T1 sequence (P51813 whole entry): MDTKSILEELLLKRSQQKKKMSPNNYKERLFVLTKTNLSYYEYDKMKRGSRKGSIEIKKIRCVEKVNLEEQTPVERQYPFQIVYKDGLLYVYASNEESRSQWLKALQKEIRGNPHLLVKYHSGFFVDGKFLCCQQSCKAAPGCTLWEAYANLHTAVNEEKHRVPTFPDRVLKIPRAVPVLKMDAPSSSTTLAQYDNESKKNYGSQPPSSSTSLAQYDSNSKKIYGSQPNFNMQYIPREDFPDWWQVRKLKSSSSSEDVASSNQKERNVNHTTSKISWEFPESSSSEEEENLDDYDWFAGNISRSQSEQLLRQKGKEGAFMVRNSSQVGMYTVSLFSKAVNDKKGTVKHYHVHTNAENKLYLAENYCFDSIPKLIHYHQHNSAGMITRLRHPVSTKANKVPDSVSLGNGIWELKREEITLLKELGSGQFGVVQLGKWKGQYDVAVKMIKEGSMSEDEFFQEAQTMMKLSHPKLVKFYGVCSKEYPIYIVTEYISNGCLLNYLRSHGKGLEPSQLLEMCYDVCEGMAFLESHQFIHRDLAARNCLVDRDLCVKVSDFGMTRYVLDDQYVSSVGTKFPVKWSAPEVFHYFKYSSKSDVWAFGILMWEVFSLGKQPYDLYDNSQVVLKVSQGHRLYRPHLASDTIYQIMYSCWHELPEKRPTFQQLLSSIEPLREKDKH
From the text: (§1) The specificity of LFM-A13 was further examined against a broad panel of serine-threonine kinases and tyrosine kinases using the KinaseProfiler Assay protocols from Upstate (Charlottesville, Virginia).

[2] = molecular target: Hepatocyte growth factor receptor (Homo sapiens, UniProt P08581); assay: Kinase Selectivity Assay
From the text: as §1

[3] = molecular target: Protein-tyrosine kinase 6 (Homo sapiens, UniProt Q13882); assay: Kinase Selectivity Assay
From the text: as §1

[4] = molecular target: Cyclin-dependent kinase/G2/mitotic-specific cyclin- 1 (Homo sapiens, UniProt P06493); assay: Kinase Selectivity Assay
From the text: as §1

[5] = molecular target: Tyrosine-protein kinase Fyn (Homo sapiens, UniProt P06241); assay: Kinase Selectivity Assay
From the text: as §1

[6] = molecular target: Mast/stem cell growth factor receptor Kit (Homo sapiens, UniProt P10721); assay: Kinase Selectivity Assay
From the text: as §1

[7] = molecular target: T2, Serine/threonine-protein kinase Chk1 (Homo sapiens, UniProt O14757); assay: Kinase Selectivity Assay
T2 sequence (O14757 whole entry): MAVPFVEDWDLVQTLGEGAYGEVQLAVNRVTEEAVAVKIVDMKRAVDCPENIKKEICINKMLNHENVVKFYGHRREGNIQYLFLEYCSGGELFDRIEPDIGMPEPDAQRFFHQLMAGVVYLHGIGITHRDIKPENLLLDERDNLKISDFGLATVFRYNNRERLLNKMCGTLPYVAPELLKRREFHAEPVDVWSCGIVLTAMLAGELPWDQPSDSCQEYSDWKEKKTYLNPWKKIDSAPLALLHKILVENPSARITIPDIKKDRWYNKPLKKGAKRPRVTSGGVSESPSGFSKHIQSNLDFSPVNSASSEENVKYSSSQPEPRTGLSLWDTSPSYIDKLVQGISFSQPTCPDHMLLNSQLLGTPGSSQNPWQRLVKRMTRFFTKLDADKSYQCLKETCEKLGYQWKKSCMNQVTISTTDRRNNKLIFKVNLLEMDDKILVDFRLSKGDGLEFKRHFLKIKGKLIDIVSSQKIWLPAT
From the text: as §1

[8] = molecular target: Cyclin-A2/Cyclin-dependent kinase 2 (Homo sapiens, UniProt P24941); assay: Kinase Selectivity Assay
From the text: as §1

[9] = molecular target: Serine/threonine-protein kinase PLK3 (Homo sapiens, UniProt Q9H4B4); assay: PLK3 Kinase Inhibition Assay; details: pH 7; 22 °C
Method: The mode of human PLK3 inhibition by LFM-A13 was examined in titration experiments using increasing concentrations of [gamma-32P]ATP and purified N-terminal His6-tagged recombinant human PLK3. The Ki of PLK3 by LFM-A13 was calculated from the reciprocal plots of the intensity of phosphorylation of the substrate versus the concentration of the inhibitor. From this Dixon plot, the Ki represents the dissociation constants of the EI complex, which is determined by the point of linear intersection.

[10] = molecular target: Serine/threonine-protein kinase PLK1 (Xenopus laevis, UniProt P70032); assay: Plx1 Kinase Inhibition Assay; details: pH 7.5; 22 °C
Method: Purified Plx1 was first incubated with different concentrations of LFM-A13. The substrate, GST-Cdc25 peptide (254-316) and [gamma-32P]ATP were added and the kinase reaction allowed to proceed for 15 min at room temperature. After incubation, incorporation of radioactivity to the substrate was further quantified.

Serine/threonine-protein kinase PLK3, sequence (Q9H4B4 whole entry): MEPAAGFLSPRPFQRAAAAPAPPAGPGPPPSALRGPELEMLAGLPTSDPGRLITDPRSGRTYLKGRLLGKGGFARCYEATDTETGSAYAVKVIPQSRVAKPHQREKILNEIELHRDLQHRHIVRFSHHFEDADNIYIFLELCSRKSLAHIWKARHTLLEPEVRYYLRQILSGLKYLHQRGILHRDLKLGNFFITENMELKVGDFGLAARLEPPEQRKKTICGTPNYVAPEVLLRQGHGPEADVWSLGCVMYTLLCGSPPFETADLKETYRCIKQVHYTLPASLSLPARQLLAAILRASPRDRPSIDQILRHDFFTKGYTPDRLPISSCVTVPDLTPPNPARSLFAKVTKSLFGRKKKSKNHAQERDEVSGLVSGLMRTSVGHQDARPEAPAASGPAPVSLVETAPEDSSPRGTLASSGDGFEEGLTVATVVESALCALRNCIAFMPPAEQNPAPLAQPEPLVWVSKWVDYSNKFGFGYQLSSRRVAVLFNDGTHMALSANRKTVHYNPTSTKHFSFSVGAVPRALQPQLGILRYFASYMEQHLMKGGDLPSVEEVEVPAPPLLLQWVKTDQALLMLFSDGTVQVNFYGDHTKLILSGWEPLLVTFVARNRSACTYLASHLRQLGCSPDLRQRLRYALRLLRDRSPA
Serine/threonine-protein kinase PLK1, sequence (P70032 whole entry): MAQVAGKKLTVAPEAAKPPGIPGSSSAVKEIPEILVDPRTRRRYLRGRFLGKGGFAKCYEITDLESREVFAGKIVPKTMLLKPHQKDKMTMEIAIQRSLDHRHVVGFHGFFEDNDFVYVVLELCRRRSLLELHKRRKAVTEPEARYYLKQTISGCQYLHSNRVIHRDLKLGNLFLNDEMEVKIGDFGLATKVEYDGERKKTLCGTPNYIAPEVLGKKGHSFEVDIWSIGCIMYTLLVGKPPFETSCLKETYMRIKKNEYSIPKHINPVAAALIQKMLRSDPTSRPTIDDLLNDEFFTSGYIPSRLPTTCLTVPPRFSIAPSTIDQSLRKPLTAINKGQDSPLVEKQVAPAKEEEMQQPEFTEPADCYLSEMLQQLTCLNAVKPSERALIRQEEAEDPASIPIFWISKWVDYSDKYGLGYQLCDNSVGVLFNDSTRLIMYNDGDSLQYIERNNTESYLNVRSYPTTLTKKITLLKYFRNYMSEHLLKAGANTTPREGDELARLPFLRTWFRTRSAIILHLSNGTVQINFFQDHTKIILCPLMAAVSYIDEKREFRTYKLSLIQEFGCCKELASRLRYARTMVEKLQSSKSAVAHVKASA
Protein-tyrosine kinase 6, sequence (Q13882 whole entry): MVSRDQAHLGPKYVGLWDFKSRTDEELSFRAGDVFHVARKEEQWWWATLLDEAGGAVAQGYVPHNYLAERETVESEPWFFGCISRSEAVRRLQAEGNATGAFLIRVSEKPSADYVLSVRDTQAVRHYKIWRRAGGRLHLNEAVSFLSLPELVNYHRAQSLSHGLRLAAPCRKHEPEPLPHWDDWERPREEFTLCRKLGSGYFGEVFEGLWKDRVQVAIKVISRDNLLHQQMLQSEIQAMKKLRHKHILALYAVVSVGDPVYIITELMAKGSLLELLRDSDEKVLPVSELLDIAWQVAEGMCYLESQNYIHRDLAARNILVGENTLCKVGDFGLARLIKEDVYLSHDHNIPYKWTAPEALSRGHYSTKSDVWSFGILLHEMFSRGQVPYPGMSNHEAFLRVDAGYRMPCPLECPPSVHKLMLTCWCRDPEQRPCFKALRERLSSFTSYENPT
Hepatocyte growth factor receptor, sequence (P08581 whole entry): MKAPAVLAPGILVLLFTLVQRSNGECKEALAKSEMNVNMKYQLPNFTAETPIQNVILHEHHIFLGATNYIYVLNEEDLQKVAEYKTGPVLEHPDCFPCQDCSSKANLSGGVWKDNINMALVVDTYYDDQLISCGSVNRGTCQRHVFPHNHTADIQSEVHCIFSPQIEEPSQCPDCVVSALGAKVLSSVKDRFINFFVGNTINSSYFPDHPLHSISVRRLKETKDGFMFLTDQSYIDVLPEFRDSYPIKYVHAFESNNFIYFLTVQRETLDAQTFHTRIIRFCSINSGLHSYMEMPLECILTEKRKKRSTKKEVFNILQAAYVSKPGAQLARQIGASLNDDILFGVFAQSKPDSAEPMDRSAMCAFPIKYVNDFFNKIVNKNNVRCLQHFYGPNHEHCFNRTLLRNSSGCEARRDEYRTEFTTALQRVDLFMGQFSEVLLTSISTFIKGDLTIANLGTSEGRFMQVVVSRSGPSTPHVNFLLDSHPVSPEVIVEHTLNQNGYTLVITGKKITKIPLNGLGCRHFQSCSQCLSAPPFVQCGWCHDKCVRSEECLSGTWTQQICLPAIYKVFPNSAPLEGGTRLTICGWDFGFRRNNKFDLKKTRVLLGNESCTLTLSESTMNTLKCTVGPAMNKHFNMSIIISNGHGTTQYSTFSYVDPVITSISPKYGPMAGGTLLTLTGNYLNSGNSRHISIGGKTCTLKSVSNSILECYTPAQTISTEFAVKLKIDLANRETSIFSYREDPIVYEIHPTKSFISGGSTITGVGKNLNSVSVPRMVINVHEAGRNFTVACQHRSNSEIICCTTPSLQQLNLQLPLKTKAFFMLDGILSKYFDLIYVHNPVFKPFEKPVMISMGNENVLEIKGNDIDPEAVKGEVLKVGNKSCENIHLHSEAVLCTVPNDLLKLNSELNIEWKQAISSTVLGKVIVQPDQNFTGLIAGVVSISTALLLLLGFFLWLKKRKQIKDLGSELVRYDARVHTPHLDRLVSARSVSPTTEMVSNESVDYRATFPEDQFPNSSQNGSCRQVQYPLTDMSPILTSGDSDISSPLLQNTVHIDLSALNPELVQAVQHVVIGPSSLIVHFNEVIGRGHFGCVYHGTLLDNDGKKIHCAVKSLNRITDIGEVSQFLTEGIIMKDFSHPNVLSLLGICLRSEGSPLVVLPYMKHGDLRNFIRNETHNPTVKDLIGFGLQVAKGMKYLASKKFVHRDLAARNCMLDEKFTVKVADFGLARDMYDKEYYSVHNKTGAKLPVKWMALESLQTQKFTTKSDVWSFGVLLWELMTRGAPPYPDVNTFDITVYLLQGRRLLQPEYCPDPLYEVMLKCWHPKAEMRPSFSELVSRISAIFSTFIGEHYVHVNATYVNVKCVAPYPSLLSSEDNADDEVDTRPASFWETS
Tyrosine-protein kinase Fyn, sequence (P06241 whole entry): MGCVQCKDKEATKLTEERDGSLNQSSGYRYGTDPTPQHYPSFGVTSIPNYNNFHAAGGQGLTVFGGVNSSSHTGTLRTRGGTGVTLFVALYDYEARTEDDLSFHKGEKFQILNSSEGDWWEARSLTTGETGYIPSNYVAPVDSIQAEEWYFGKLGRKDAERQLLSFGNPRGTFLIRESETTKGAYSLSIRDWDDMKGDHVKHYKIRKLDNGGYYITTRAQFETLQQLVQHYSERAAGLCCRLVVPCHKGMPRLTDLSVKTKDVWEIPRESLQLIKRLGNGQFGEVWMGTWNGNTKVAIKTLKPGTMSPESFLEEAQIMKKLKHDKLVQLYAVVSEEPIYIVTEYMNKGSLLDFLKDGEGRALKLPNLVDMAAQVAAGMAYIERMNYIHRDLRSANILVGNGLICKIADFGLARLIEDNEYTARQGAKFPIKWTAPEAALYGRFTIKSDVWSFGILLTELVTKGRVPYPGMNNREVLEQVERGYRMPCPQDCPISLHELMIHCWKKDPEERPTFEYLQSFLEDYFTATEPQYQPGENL
Cyclin-dependent kinase/G2/mitotic-specific cyclin- 1, sequence (P06493 whole entry): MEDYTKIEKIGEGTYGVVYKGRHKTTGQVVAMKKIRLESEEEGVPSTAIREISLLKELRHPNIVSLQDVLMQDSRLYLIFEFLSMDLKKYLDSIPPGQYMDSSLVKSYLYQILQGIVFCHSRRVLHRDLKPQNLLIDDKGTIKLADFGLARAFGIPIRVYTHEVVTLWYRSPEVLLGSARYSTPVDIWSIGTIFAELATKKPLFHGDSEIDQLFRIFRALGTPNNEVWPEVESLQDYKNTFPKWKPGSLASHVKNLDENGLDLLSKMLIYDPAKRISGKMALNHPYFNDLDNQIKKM
Cyclin-dependent kinase/G2/mitotic-specific cyclin- 1, sequence (P14635 whole entry, further chain): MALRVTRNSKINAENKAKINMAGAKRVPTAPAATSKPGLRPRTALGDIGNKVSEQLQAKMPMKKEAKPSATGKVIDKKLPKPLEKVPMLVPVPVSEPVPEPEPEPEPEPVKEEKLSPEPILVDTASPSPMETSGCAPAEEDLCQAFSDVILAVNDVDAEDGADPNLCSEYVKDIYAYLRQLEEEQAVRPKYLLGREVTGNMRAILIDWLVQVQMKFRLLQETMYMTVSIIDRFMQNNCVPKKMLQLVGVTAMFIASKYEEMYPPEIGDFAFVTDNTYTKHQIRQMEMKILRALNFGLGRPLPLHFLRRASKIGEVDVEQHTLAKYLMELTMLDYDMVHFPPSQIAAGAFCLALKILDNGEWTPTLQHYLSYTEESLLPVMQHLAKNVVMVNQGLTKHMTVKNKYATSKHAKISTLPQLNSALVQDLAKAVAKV

SMILES: CC(=O)C(C#N)C(=O)Nc1cc(Br)ccc1Br (stereo unspecified)
- IC50 [1]: 281 µM
- IC50 [2]: 215 µM
- IC50 [3]: 267 µM
- IC50 [4]: > 500 µM
- IC50 [5]: 240 µM
- IC50 [6]: > 500 µM
- IC50 [7]: > 500 µM
- IC50 [8]: > 500 µM
- IC50 [9]: 61 µM
- Ki [9]: 7.2 µM
- IC50 [10]: 10 µM
